In patent publication US10519152B2, “Compounds and their use in treating cancer” (AstraZeneca AB, priority 2017, dated 2019):

Key:
[1] = molecular target: T1, recombinant human Estrogen Receptor alpha ligand binding domain, residues 307-554 (ER alpha-LBD (GST)) (Homo sapiens, UniProt P03372); assay: ERα binding assay (LanthaScreen TR-FRET competition); details: TR-FRET competition with Fluormone ES2 tracer, 4 hours at room temperature; single experiment or average of two or more
T1 construct: made in house
T1 sequence (P03372 307-554): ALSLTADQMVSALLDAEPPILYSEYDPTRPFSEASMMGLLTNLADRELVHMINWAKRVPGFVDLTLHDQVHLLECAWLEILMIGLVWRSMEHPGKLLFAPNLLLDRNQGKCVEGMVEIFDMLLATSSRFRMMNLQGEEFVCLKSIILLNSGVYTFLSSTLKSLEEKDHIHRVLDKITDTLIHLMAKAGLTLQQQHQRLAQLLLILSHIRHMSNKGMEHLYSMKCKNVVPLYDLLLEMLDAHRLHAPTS
Procedure: The ability of compounds to bind to isolated Estrogen Receptor Alpha Ligand binding domain (ER alpha-LBD (GST)) was assessed in competition assays using a LanthaScreen™ Time-Resolved Fluorescence Resonance Energy Transfer (TR-FRET) detection end-point. For the LanthaScreen TR-FRET endpoint, a suitable fluorophore (Fluormone ES2, ThermoFisher, Product code P2645) and recombinant human Estrogen Receptor alpha ligand binding domain, residues 307-554 (expressed and purified in-house) were used to measure compound binding. The assay principle is that ER alpha-LBD (GST) is added to a fluorescent ligand to form a receptor/fluorophore complex. A terbium-labelled anti-GST antibody (Product code PV3551) is used to indirectly label the receptor by binding to its GST tag, and competitive binding is detected by a test compound's ability to displace the fluorescent ligand, resulting in a loss of TR-FRET signal between the Tb-anti-GST antibody and the tracer. The assay was performed as follows with all reagent additions carried out using the Beckman Coulter BioRAPTR FRD microfluidic workstation: • 1. Acoustic dispense 120 nL of the test compound into a black low volume 384 well assay plates. • 2. Prepare 1×ER alpha-LBD/Tb-antiGST Ab in ES2 screening buffer and incubate for 15 minutes. • 3. Dispense 6 μL of the […] reagent into each well of the assay plate followed by 6 μL of Fluorophore reagent into each well of the assay plate • 4. Cover the assay plate to protect the reagents from light and evaporation, and incubate at room temperature for 4 hours. • 5. Excite at 337 nm and measure the fluorescent emission signal of each well at 490 nm and 520 nm using the BMG PheraSTAR.
Compounds were dosed directly from a compound source microplate containing serially diluted compound (4 wells containing 10 mM, […] and 10 nM final compound respectively) to an assay microplate using the Labcyte Echo 550. The Echo 550 is a liquid handler that uses acoustic technology to perform direct microplate-to-microplate transfers of DMSO compound solutions and the system can be programmed to transfer multiple small nL volumes of compound from the different source plate wells to give the desired serial dilution of compound in the assay which is then back-filled to normalise the DMSO concentration across the dilution range.
In total 120 nL of compound plus DMSO were added to each well and compounds were tested in a 12-point concentration response format over a final compound concentration range of 10, 2.917, 1.042, 0.2083, 0.1, 0.0292, 0.0104, 0.002083, 0.001, 0.0002917, 0.0001042, and 0.00001 μM respectively. TR-FRET dose response data obtained with each compound was exported into a suitable software package (such as Origin or Genedata) to perform curve fitting analysis. Competitive ER alpha binding was expressed as an IC50 value. This was determined by calculation of the concentration of compound that was required to give a 50% reduction in tracer compound binding to ER alpha-LBD.

[2] = molecular target: T2, Estrogen Receptor (ERα) in MCF-7 human ductal carcinoma breast cell line (Homo sapiens, UniProt P03372); assay: MCF-7 ER degradation assay (cell based immuno-fluorescence); details: MCF-7 cells, 18-22 hours incubation, 50% reduction of ERα expression; single experiment or average of two or more; read-out: MCF-7 ER degradation IC50
T2 construct: endogenous in cells; host or cells: MCF-7
T2 sequence (P03372 1-595): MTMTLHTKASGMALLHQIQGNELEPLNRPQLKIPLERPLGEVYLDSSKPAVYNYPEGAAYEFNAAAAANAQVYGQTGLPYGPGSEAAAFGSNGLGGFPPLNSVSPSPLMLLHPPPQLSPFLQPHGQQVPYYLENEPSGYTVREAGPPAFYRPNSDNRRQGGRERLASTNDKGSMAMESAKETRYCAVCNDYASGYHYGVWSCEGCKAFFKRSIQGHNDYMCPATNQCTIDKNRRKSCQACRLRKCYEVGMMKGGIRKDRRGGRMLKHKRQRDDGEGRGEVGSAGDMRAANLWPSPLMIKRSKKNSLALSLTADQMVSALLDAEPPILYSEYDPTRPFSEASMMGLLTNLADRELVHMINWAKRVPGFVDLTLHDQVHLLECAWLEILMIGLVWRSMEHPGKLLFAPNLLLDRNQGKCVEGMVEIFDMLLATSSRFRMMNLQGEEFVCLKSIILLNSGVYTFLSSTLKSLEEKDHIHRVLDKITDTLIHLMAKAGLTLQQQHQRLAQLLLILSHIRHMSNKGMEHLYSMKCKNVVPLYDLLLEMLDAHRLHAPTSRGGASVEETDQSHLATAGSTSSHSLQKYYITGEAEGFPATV
Procedure: MCF-7 ER Degradation Assay
The ability of compounds to down-regulate Estrogen Receptor (ER) numbers was assessed in a cell based immuno-fluorescence assay using the MCF-7 human ductal carcinoma breast cell line. MCF-7 cells were revived directly from a cryovial (approx 5×10^6 cells) in Assay Medium (phenol red free Dulbecco's Modified Eagle's medium (DMEM); Sigma D5921) containing 2 mM L-Glutamine and 5% (v/v) Charcoal/Dextran treated foetal calf serum. Cells were syringed once using a sterile 18 G×1.5 inch (1.2×40 mm) broad gauge needle and cell density was measured using a Coulter Counter (Beckman). Cells were further diluted in Assay Medium to a density of 3.75×10^4 cells per mL and 40 μL per well added to transparent bottomed, black, tissue culture-treated 384 well plates (Costar, No. 3712) using a Thermo Scientific Matrix WellMate or Thermo Multidrop. Following cell seeding, plates were incubated overnight at 37° C., 5% CO2 (Liconic carousel incubator). Test data was generated using the LabCyte Echo™ model 555 compound reformatter which is part of an automated workcell (Integrated Echo 2 workcell). Compound stock solutions (10 mM) of the test compounds were used to generate a 384 well compound dosing plate (Labcyte P-05525-CV1). 40 μL of each of the 10 mM compound stock solutions was dispensed into the first quadrant well and then 1:100 step-wise serial dilutions in DMSO were performed using a Hydra II (MATRIX UK) liquid handling unit to give 40 μL of diluted compound into quadrant wells 2 (0.1 mM), 3 (1 μM) and 4 (0.01 μM), respectively. 40 μL of DMSO added to wells in row P on the source plate allowed for DMSO normalisation across the dose range. To dose the control wells 40 μL of DMSO was added to row O1 and 40 μL of 100 μM fulvestrant in DMSO was added to row O3 on the compound source plate.
The Echo uses acoustic technology to perform direct microplate-to-microplate transfers of DMSO compound solutions to assay plates. The system can be programmed to transfer volumes as low as 2.5 nL in multiple increments between microplates and in so doing generates a serial dilution of compound in the assay plate which is then back-filled to normalise the DMSO concentration across the dilution range. Compounds were dispensed onto the cell plates with a compound source plate prepared as above producing a 12 point duplicate […] dose range with 3-fold dilutions and one final 10-fold dilution using the Integrated Echo 2 workcell. The maximum signal control wells were dosed with DMSO to give a final concentration of 0.3%, and the minimum signal control wells were dosed with fulvestrant to give a final concentration of 100 nM accordingly. Plates were further incubated for 18-22 hours at 37° C., 5% CO2 and then fixed by the addition of 20 μL of 11.1% (v/v) formaldehyde solution (in phosphate buffered saline (PBS)) giving a final formaldehyde concentration of 3.7% (v/v). Cells were fixed at room temperature for 20 mins before being washed two times with 250 μL PBS/Proclin (PBS with a Biocide preservative) using a BioTek platewasher, 40 μL of PBS/Proclin was then added to all wells and the plates stored at 4° C. The fixing method described above was carried out on the Integrated Echo 2 workcell. Immunostaining was performed using an automated AutoElisa workcell. The PBS/Proclin was aspirated from all wells and the cells permeabilised with 40 μL PBS containing 0.5% Tween™ 20 (v/v) for 1 hour at room temperature. The plates were washed three times in 250 μL of PBS/0.05% (v/v) Tween 20 with Proclin (PBST with a Biocide preservative) and then 20 μL of ERα (SP1) Rabbit monoclonal antibody (Thermofisher) 1:1000 in PBS/Tween™/3% (w/v) Bovine Serum Albumin was added. The plates were incubated overnight at 4° C. (Liconic carousel incubator) and then washed three times in 250 μL of PBS/0.05% (v/v) Tween™ 20 with Proclin (PBST). […]

SMILES	IC50 [1] [nM]	DC50 [2] [nM]
Cc1ncsc1-c1ccc(CNC(=O)[C@@H]2C[C@@H](O)CN2C(=O)[C@@H](NC(=O)c2ccc(CCCCCOc3cc(F)c([C@@H]4c5[nH]c6ccccc6c5C[C@@H](C)N4CC(C)(C)F)c(F)c3)cc2)C(C)(C)C)cc1 [Example 27, (2S,4R)-1-((S)-2-(4-(5-(3,5-Difluoro-4-((1R,3R)-2-(2-fluoro-2-methylpropyl)-3-methyl-2,3,4,9-tetrahydro-1H-pyrido[3,4-b]indol-1-yl)phenoxy)pentyl)benzamido)-3,3-dimethylbutanoyl)-4-hydroxy-N-(4-(4-methylthiazol-5-yl)benzyl)pyrrolidine-2-carboxamide]	1.1	22
Cc1ncsc1-c1ccc(CNC(=O)[C@@H]2C[C@@H](O)CN2C(=O)[C@@H](NC(=O)COCCOCCOCCOc2cc(F)c([C@@H]3c4[nH]c5ccccc5c4C[C@@H](C)N3C[C@H](C)C(=O)O)c(F)c2)C(C)(C)C)cc1 [Example 30, (S)-3-((1R,3R)-1-(2,6-Difluoro-4-(((S)-13-((2S,4R)-4-hydroxy-2-((4-(4-methylthiazol-5-yl)benzyl)carbamoyl)pyrrolidine-1-carbonyl)-14,14-dimethyl-11-oxo-3,6,9-trioxa-12-azapentadecyl)oxy)phenyl)-3-methyl-1,3,4,9-tetrahydro-2H-pyrido[3,4-b]indol-2-yl)-2-methylpropanoic Acid]	4.1	174
Cc1ncsc1-c1ccc(CNC(=O)[C@@H]2C[C@@H](O)CN2C(=O)[C@@H](N(C)C(=O)COCCOCCOCCOc2cc(F)c([C@@H]3c4[nH]c5ccccc5c4C[C@@H](C)N3CC(C)(C)F)c(F)c2)C(C)(C)C)cc1 [Example 31, (2S,4R)-1-((S)-2-(tert-Butyl)-14-(3,5-difluoro-4-((1R,3R)-2-(2-fluoro-2-methylpropyl)-3-methyl-2,3,4,9-tetrahydro-1H-pyrido[3,4-b]indol-1-yl)phenoxy)-3-methyl-4-oxo-6,9,12-trioxa-3-azatetradecanoyl)-4-hydroxy-N-(4-(4-methylthiazol-5-yl)benzyl)pyrrolidine-2-carboxamide]	0.6	0.3
Cc1ncsc1-c1ccc(CNC(=O)[C@@H]2C[C@@H](O)CN2C(=O)[C@@H](NCc2ccc(COc3cc(F)c([C@@H]4c5[nH]c6ccccc6c5C[C@@H](C)N4CC(C)(C)F)c(F)c3)cc2)C(C)(C)C)cc1 [Example 35, (2S,4R)-1-((S)-2-((4-((3,5-difluoro-4-((1R,3R)-2-(2-fluoro-2-methylpropyl)-3-methyl-2,3,4,9-tetrahydro-1H-pyrido[3,4-b]indol-1-yl)phenoxy)methyl)benzyl)amino)-3,3-dimethylbutanoyl)-4-hydroxy-N-(4-(4-methylthiazol-5-yl)benzyl)pyrrolidine-2-carboxamide]	1	9.1
Cc1ncsc1-c1ccc(CNC(=O)[C@@H]2C[C@@H](O)CN2C(=O)[C@@H](NC(=O)c2ccc(COc3cc(F)c([C@@H]4c5[nH]c6ccccc6c5C[C@@H](C)N4CC(C)(C)F)c(F)c3)cc2)C(C)(C)C)cc1 [Example 36, (2S,4R)-1-((S)-2-(4-((3,5-Difluoro-4-((1R,3R)-2-(2-fluoro-2-methylpropyl)-3-methyl-2,3,4,9-tetrahydro-1H-pyrido[3,4-b]indol-1-yl)phenoxy)methyl)benzamido)-3,3-dimethylbutanoyl)-4-hydroxy-N-(4-(4-methylthiazol-5-yl)benzyl)pyrrolidine-2-carboxamide]	1	1
